The results in this text go back to ChEMBL document CHEMBL1201862, “PubChem BioAssay data set” (2004).

Some test systems named below: SW-620; OVCAR-8; NCI-H226; COLO 205; HCC 2998; NCI-H522; LOX IMVI; HCT-116; CCRF-CEM; KM12; HOP-62; HT-29; SK-OV-3; ACHN; CAKI-1.
Common to all, as to test: NCI tumour cell line growth inhibition, 48 h

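Dose response: 5 concentrations. Exposure: 48 h. Format: 96-well plates. Endpoint: linear interpolation; highest concentration if not reached. The concentration for 50% growth inhibition is given as GI50.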 Calls of active or inactive are those of the source. No stated cut-off is given here; in the data, active = GI50 up to about 1.1 µM and inactive = higher. Some results are limits rather than exact numbers.

`CCOC(=O)C1C(=O)c2cccc(OC)c2C2COC(=O)N12` (stereo not given): the GI50 in the test on SW-620, in the test on OVCAR-8, in the test with NCI-H226, in the test on COLO 205, in the test with HCC 2998 and in the test with NCI-H522 was > 100 µM (inactive) throughout. Moreover, the GI50 in the test with LOX IMVI, in the test with HCT-116, in the test on CCRF-CEM, in the test with KM12, in the test on HOP-62 and with HT-29 was > 100 µM (inactive) each time. Moreover, the GI50 in the test with SK-OV-3 and in the test on ACHN was > 100 µM (inactive) in each case.

In the case of `CC1/C=C/[C@@]2(C)CCC(C(C)(C)O)C2C(O)C[C@](C)(O)/C=C/C1` (stereo not given in full), the GI50 was > 100 µM (inactive) in the test on SW-620; > 100 µM (inactive) in the test with OVCAR-8; 7.31 µM (inactive) with NCI-H226; > 100 µM (inactive) in the test on COLO 205; > 100 µM (inactive) in the test on HCC 2998; > 100 µM (inactive) with CAKI-1. For the same compound, the GI50 in the test with LOX IMVI, in the test with HCT-116, with CCRF-CEM, with KM12, with HOP-62 and with HT-29 was > 100 µM (inactive) each time. For the same compound, the GI50 with SK-OV-3 and with ACHN was > 100 µM (inactive) in each case.

As to `[O-][n+]1c2cc(CBr)c(CBr)cc2[n+]([O-])c2c(O)cccc21`, the GI50 in the test with SW-620 is 1.56 µM (inactive); in the test on OVCAR-8, 1.82 µM (inactive); in the test on NCI-H226 it was 6.61 µM (inactive); in the test with COLO 205, 1.77 µM (inactive); in the test with NCI-H522, 0.538 µM (active); with CAKI-1, 2.87 µM (inactive). Further, the GI50 was 1.35 µM (inactive) in the test on LOX IMVI; 1.53 µM (inactive) in the test with HCT-116; 0.265 µM (active) in the test with CCRF-CEM; 1.9 µM (inactive) in the test with KM12; 20.1 µM (inactive) in the test with HOP-62; 2.01 µM (inactive) in the test on HT-29. The GI50 in the test with SK-OV-3 is 4.86 µM (inactive); in the test with ACHN, 1.81 µM (inactive).

Consider `c1ccc(SC(CCCCC(Sc2ccccc2)Sc2ccccc2)Sc2ccccc2)cc1`, for which the GI50 in the test with SW-620, in the test with OVCAR-8, with COLO 205, with HCC 2998, in the test on CAKI-1 and in the test on LOX IMVI was > 100 µM (inactive) each time. Besides, the GI50 in the test on HCT-116, with CCRF-CEM, in the test with KM12, with HOP-62, with SK-OV-3 and in the test with ACHN was > 100 µM (inactive) each time.

As for `CO[C@@H]1C=C[C@@]23c4cc5c(cc4C(=O)O[C@H]2CN(C)[C@H]3C1)OCO5`, the GI50 in the test on SW-620, in the test with OVCAR-8, in the test with COLO 205, with HCC 2998, in the test on NCI-H522 and in the test on LOX IMVI was > 100 µM (inactive) each time. The GI50 in the test on HCT-116, with CCRF-CEM, with KM12, with HT-29, in the test on SK-OV-3 and in the test on ACHN was > 100 µM (inactive) each time.

As to `CC1(C(=O)O)CCC[C@@]2(C)C1CC[C@@]1(C)c3cocc3CCC21` (stereo not given in full), the GI50 in the test on SW-620, with OVCAR-8, in the test with NCI-H226, in the test on COLO 205, in the test on HCC 2998 and in the test with CAKI-1 was > 100 µM (inactive) throughout. Moreover, the GI50 in the test on LOX IMVI is > 100 µM (inactive); in the test with HCT-116 it was 72.8 µM (inactive); in the test with CCRF-CEM, > 100 µM (inactive); with KM12 it was > 100 µM (inactive); with HOP-62, > 100 µM (inactive); in the test with HT-29, > 100 µM (inactive). Besides, the GI50 with SK-OV-3 and in the test with ACHN was > 100 µM (inactive) throughout.

`COc1ccccc1/C=C(\NC(=O)c1ccccc1)c1nc2ccc(Cl)cc2[nH]1`: the GI50 in the test with SW-620 was 29.9 µM (inactive); with OVCAR-8, 22.8 µM (inactive); with NCI-H226 it was 23.3 µM (inactive); in the test with COLO 205, 19.1 µM (inactive); in the test with NCI-H522 it was 15.6 µM (inactive); in the test with CAKI-1 it was 21.4 µM (inactive). For the same compound, the GI50 in the test with LOX IMVI is 37.2 µM (inactive); in the test on HCT-116, 29 µM (inactive); in the test on CCRF-CEM, 21.7 µM (inactive); in the test with KM12, 23.7 µM (inactive); in the test with HT-29, 30.8 µM (inactive); in the test with SK-OV-3 it was 37.2 µM (inactive). In addition, the GI50 in the test on ACHN is 21.5 µM (inactive).

`CCCCCCCCCCCCCC(=O)OCC1OC(OC)C(NC(=O)N(CCCl)N=O)C(O)C1O` (stereo not given): the GI50 in the test on SW-620 was 8.79 µM (inactive); in the test with OVCAR-8 it was 21.8 µM (inactive); in the test with NCI-H226, 24.8 µM (inactive); in the test with COLO 205 it was 21.9 µM (inactive); in the test on HCC 2998, 28.1 µM (inactive); in the test on NCI-H522, > 10 µM (inactive). Further, the GI50 was > 100 µM (inactive) in the test with CAKI-1; 10.1 µM (inactive) in the test on LOX IMVI; 14.3 µM (inactive) in the test on HCT-116; 10.3 µM (inactive) with CCRF-CEM; 24.4 µM (inactive) in the test on KM12; 17.2 µM (inactive) in the test on HOP-62. For the same compound, the GI50 was 19.9 µM (inactive) with HT-29 and 10.5 µM (inactive) in the test with ACHN.

For `O=C(Nc1nnc(S)[nH]1)C(=O)C1C(=O)Nc2ccccc2[S+]1[O-]` (stereo not given), the GI50 with SW-620, in the test on OVCAR-8, in the test on COLO 205, in the test on HCC 2998, in the test on NCI-H522 and in the test on CAKI-1 was > 100 µM (inactive) in each case. Moreover, the GI50 with LOX IMVI, in the test with HCT-116, with CCRF-CEM, in the test with KM12, in the test with HOP-62 and with HT-29 was > 100 µM (inactive) throughout. Moreover, the GI50 in the test with SK-OV-3 and in the test on ACHN was > 100 µM (inactive) throughout.

As for `O=c1[nH]nc(-c2ccccc2)c(-c2ccccc2)c1-n1nc(-c2ccccc2)c2ccccc2c1=O`, the GI50 was 99.5 µM (inactive) in the test with SW-620; 92 µM (inactive) in the test on OVCAR-8; > 100 µM (inactive) in the test on NCI-H226; 34.6 µM (inactive) in the test on COLO 205; > 100 µM (inactive) in the test on HCC 2998; 34 µM (inactive) in the test on NCI-H522. For the same compound, the GI50 with CAKI-1 is > 100 µM (inactive); with HCT-116, 83.9 µM (inactive); in the test with CCRF-CEM, 27.9 µM (inactive); in the test on KM12, 65.8 µM (inactive); in the test with HOP-62, > 100 µM (inactive); in the test with HT-29 it was 68.5 µM (inactive). The values for the GI50 with SK-OV-3 and with ACHN were > 100 µM (inactive) and 50.8 µM (inactive), respectively.

Consider `O=C1/C(=C\c2ccccc2)c2ccccc2N1/N=C\c1ccccc1`, for which the GI50 was 59 µM (inactive) in the test on SW-620; > 100 µM (inactive) in the test with OVCAR-8; > 100 µM (inactive) in the test on NCI-H226; > 100 µM (inactive) in the test on COLO 205; 50.4 µM (inactive) with HCC 2998; > 100 µM (inactive) in the test with CAKI-1. The GI50 is > 100 µM (inactive) in the test on LOX IMVI; 77.4 µM (inactive) in the test with HCT-116; 49.2 µM (inactive) in the test with CCRF-CEM; 49.1 µM (inactive) with KM12; > 100 µM (inactive) in the test with HOP-62; 25.1 µM (inactive) in the test on HT-29. The GI50 in the test with SK-OV-3 and in the test on ACHN was > 100 µM (inactive) in each case.

For the compound `O=C1N=C2Sc3ccc4ccccc4c3N2C1=O`, the GI50 in the test with SW-620 was 21.4 µM (inactive); with OVCAR-8 it was 18.4 µM (inactive); with NCI-H226 it was 22.1 µM (inactive); in the test with COLO 205, 29.6 µM (inactive); with HCC 2998 it was 27 µM (inactive); with CAKI-1, 24.1 µM (inactive). For the same compound, the GI50 in the test on LOX IMVI is 19.2 µM (inactive); in the test on HCT-116, 17.7 µM (inactive); in the test with CCRF-CEM, 31.3 µM (inactive); with KM12, 32.7 µM (inactive); with HOP-62, 19.2 µM (inactive); in the test on HT-29 it was 32.7 µM (inactive). For the same compound, the figures for the GI50 with SK-OV-3 and with ACHN were 15.5 µM (inactive) and 28.8 µM (inactive), respectively.

Turning to `C[N+](C)(C)CC(=O)N/N=C(/Cc1nc2ccc(Cl)cc2nc1O)C1=NS(=O)(=O)c2cc(S(N)(=O)=O)c(Cl)cc2N1`, the GI50 with SW-620, in the test with OVCAR-8, with COLO 205, in the test on HCC 2998, in the test with NCI-H522 and in the test with HCT-116 was > 100 µM (inactive) in each case. Further, the GI50 with CCRF-CEM, with KM12, in the test on HOP-62, in the test with HT-29, in the test with SK-OV-3 and in the test with ACHN was > 100 µM (inactive) throughout.

Turning to `C=C(Br)C(C)(Br)CCC(Br)C(C)(C)Br` (stereo not given), the GI50 with SW-620 was 28.4 µM (inactive); with OVCAR-8 it was 17.5 µM (inactive); in the test on NCI-H226, 35.3 µM (inactive); in the test with COLO 205 it was 19.3 µM (inactive); in the test with NCI-H522 it was 14.7 µM (inactive); with CAKI-1, > 100 µM (inactive). In addition, the GI50 with LOX IMVI is 16.5 µM (inactive); with HCT-116, 21.2 µM (inactive); in the test with CCRF-CEM it was 15 µM (inactive); in the test with KM12 it was 40.1 µM (inactive); in the test on HOP-62, 14.7 µM (inactive); in the test with HT-29 it was 38.8 µM (inactive). Further, the GI50 with SK-OV-3 was 40.7 µM (inactive); in the test with ACHN it was 57.7 µM (inactive).

For the compound `CC1(C)COC(C23C4C5C2C2C3C4C52I)=N1` (stereo not given), the GI50 in the test with SW-620 was > 100 µM (inactive); with OVCAR-8, > 100 µM (inactive); in the test on NCI-H226 it was > 100 µM (inactive); in the test on COLO 205, > 100 µM (inactive); with HCC 2998, > 100 µM (inactive); with CAKI-1 it was 50.4 µM (inactive). Further, the GI50 in the test on CCRF-CEM, with HOP-62, in the test with HT-29, in the test with SK-OV-3 and with ACHN was > 100 µM (inactive) in each case.
